{"source": "patent EP1101492A1", "about": "“NOVEL REMEDIES FOR ALLERGIC DISEASES” (FUJI YAKUHIN KOGYO KABUSHIKI KAISHA, priority 1998, dated 2000)", "key": {"[1]": {"test": "Body weight gain in sensitized mice", "type": "in vivo", "details": "test compound 50 µg/ear/dose, prednisolone 5 µg/ear/dose, in ethanol painted twice a day, Days 1, 4 and 7, vs solvent control (ethanol)", "protocol": "Experimental atopic dermatitis model mice sensitized in the same manner as in Example 1 were examined for influence on body weight gains.\nEach mouse was measured for its body weight not only immediately before the start in painting but also on Days 1, 4 and 7 after the start in painting. Each gain in body weight was calculated and considered to indicate an effect on body weight changes affected by said treatments."}, "allergic peritonitis": {"tested_on": "allergic peritonitis", "test": "Allergic peritonitis induced with ovalbumin (peritoneal exudate cells)", "type": "in vivo, Balb/c mice", "details": "ovalbumin challenge", "protocol": "Twenty four hours after induction, mice were sacrificed under ether […] and each penitoneal cavity was lavaged twice or thrice with a washout medium (total volume: 5 mL, physiological saline containing 10 units/mL of heparin). Peritoneal exudate cells (PEC) were harvested in a siliconized glass tube. The retrieved washout medium was measured for its yield (mL) and the number of exudate cells therein by using Turk solution and counting on a haemocytometer and a total number of PEC was calculated. An aliquot thereof (an extent of approximately 20,000 cells of PEC) was taken. Specimens for staining were prepared using Cytospin 3 (CHANDON), and PEC was stained with Dif-Quick solution (International Reagents Corporation). After staining, PEC was subjected to fractional counts under a microscope with classification into eosinophils, neutrophils, lymphocytes/macrophages and basophils based on their form and stain nature (more than 500 PEC per specimen were randomly counted). […] After counting, intraperitoneal exudation inhibition rates were calculated by the following formula and expressed as the therapeutic efficacies: Inhibition Rate (%) =[1 -((PEC in Sensitized/Drug-Treated Mouse) - (PEC in Unsensitized/Saline-Treated Mouse))/((PEC in Sensitized/Saline-Treated Mouse) - (PEC in Unsensitized/Saline-Treated Mouse))]× 100 [formula]\nA physiological saline solution containing ovalbumin (0.25 mg/mL) and an aluminum hydroxide gel (4 mg/mL) was administered subcutaneously to male Balb/c mice (7 weeks old, 20 to 23 g, purchased from JAPAN SLC, Inc.) twice at one week interval at a single dose of 0.4 mL for sensitization. On Day 14 after the initial sensitization, an antigen solution for induction (2.5 µg/mL) was administered intraperitoneally to each animal at a dose of 0.4 mL to raise allergic peritonitis. Compound No. 130 (30 mg/kg) or a negative control solvent, physiological saline (10 mL/kg), was administered intraperitoneally to each animal 5 minutes prior to induction, 3 and 6 hours post-induction.\nSimilarly to Example 24, the peritoneal cavities were lavaged to retrieve PEC. The drained liquids were measured for their yield and total PEC number therein. In the same manner as in Example 24, PEC was stained and subjected to fractional counting under a microscope based on their form. […] Similarly to Example 24, basophils and neutrophils were excluded from subjects to be examined. In the same manner as in Example 24, intraperitoneal exudation inhibition rates were calculated and expressed as the therapeutic efficacies.\nIn the same manner as in Example 25, male Balb/c mice were sensitized with ovalbumin and an aluminum hydroxide gel, and, on Day 14 after the initial sensitization, treated with an antigen solution to raise allergic peritonitis. Compound No. […]\nSimilarly to Example 24, the peritoneal cavities were lavaged to retrieve PEC 24 hours after induction. The drained liquids were measured for their yield and total PEC number therein."}, "[2]": {"details": "30 mg/kg i.p. 5 minutes prior to induction, 3 and 6 hours post-induction"}, "[3]": {"details": "30 mg/kg s.c. 6 hours and 5 minutes prior to induction, 24 hours after induction"}}, "data": [{"smiles": "CNC(=O)[C@H](Cc1ccc(NC(=N)N)cc1)NC(=O)[C@H](CC(C)C)C(CCCc1ccccc1)C(=O)NO", "note": "(single isomer, unassigned) [Compound No. 130, N-[4-(N-Hydroxyamino)-2(R)-isobutyl-3(R or S)-(3-phenyltrimethylene)succinyl)-L-4'-guanidophenylalanine-N-methylamide 1 acetate]", "values": [{"measurement": "gain in body weight (FIG. 10)", "setting": "[1]", "result": "almost equivalent to that in the solvent control group"}, {"measurement": "inhibition of infiltration of eosinophils into the peritoneal cavity", "setting": "allergic peritonitis; [2]", "result": 56.3, "unit": "%"}, {"measurement": "inhibition of infiltration of lymphocytes/macrophages into the peritoneal cavity", "setting": "allergic peritonitis; [2]", "result": 74.9, "unit": "%"}, {"measurement": "reduction of total PEC numbers", "setting": "allergic peritonitis; [2]", "result": 70.7, "unit": "%"}, {"measurement": "inhibition of infiltration of eosinophils into the peritoneal cavity", "setting": "allergic peritonitis; [3]", "result": 38.6, "unit": "%"}, {"measurement": "inhibition of infiltration of lymphocytes/macrophages into the peritoneal cavity", "setting": "allergic peritonitis; [3]", "result": 91.2, "unit": "%"}, {"measurement": "reduction of total PEC numbers", "setting": "allergic peritonitis; [3]", "result": 68.5, "unit": "%"}]}]}
